Laboratory results taken from ChEMBL document CHEMBL1201862, “PubChem BioAssay data set” (2004).
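Cultured in 96-well plates, cells were exposed to test compound for 48 hours across five concentrations. At the GI50, growth is halved.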 Calls of active or inactive are those of the source. Rule as the data show it: active = GI50 up to about 1.1 µM and inactive = higher.

Key:
Assay in all cases: NCI anticancer screen, dose series, 48 h
[1] = test system: CAKI-1
[2] = test system: HCC 2998
[3] = test system: HCT-15
[4] = test system: HT-29
[5] = test system: NCI-H226
[6] = test system: OVCAR-5
[7] = test system: A549
[8] = test system: SF-268
[9] = test system: RPMI-8226
[10] = test system: SR
[11] = test system: HOP-62
[12] = test system: SK-MEL-5
[13] = test system: K562
[14] = test system: HOP-92
[15] = test system: CCRF-CEM
[16] = test system: SK-OV-3
[17] = test system: ACHN
[18] = test system: RXF 393
[19] = test system: T47D
[20] = test system: MDA-MB-435

| SMILES | GI50 [1] | GI50 [2] | GI50 [3] | GI50 [4] | GI50 [5] | GI50 [6] | GI50 [7] | GI50 [8] | GI50 [9] | GI50 [10] | GI50 [11] | GI50 [12] | GI50 [13] | GI50 [14] | GI50 [15] | GI50 [16] | GI50 [17] | GI50 [18] | GI50 [19] | GI50 [20] |
| --- | --- | --- | --- | --- | --- | --- | --- | --- | --- | --- | --- | --- | --- | --- | --- | --- | --- | --- | --- | --- |
| O=c1c2c(-c3ccccc3)c3ccccc3nc2cnn1-c1ccccc1 | > 100 µM (inactive) | > 100 µM (inactive) | > 100 µM | 70.3 µM (inactive) | > 100 µM (inactive) | > 100 µM (inactive) | > 100 µM (inactive) | > 100 µM (inactive) | > 100 µM (inactive) | 33.2 µM (inactive) | > 100 µM (inactive) | > 100 µM (inactive) | 42.3 µM (inactive) | > 100 µM (inactive) | 81.7 µM (inactive) | > 100 µM (inactive) | > 100 µM (inactive) | > 100 µM (inactive) |  |  |
| CC/C(C)=C1\CCC(CN2CCOCC2)C1=O (stereo not drawn) | 2.47 µM (inactive) | 24.2 µM (inactive) | 13.4 µM | 15.6 µM (inactive) | 82.2 µM (inactive) | 17.5 µM (inactive) | 21.2 µM (inactive) | 11.5 µM (inactive) | 2.21 µM (inactive) | 11.2 µM (inactive) | 23.1 µM (inactive) | 28.5 µM (inactive) | 7.46 µM (inactive) | 14.6 µM (inactive) | 7.91 µM (inactive) |  | 7.18 µM (inactive) | 6.78 µM (inactive) |  |  |
| NC(=O)c1ncn(CCN2CCN(C(=O)NCCCCCCNC(=O)N3CCN(CCn4cnc(C(N)=O)c4N)CC3)CC2)c1N | > 100 µM (inactive) | > 100 µM (inactive) | > 100 µM | > 100 µM (inactive) | > 100 µM (inactive) | > 100 µM (inactive) | > 100 µM (inactive) | > 100 µM (inactive) | > 100 µM (inactive) | > 100 µM (inactive) | > 100 µM (inactive) | > 100 µM (inactive) | > 100 µM (inactive) | > 100 µM (inactive) | > 100 µM (inactive) | > 100 µM (inactive) | > 100 µM (inactive) | > 100 µM (inactive) |  |  |
| Cc1ccc(C)c(N2C/C(=N\NC(=O)CC#N)C(c3nc4ccccc4s3)C(=O)C2=O)c1 (stereo not drawn) | > 100 µM (inactive) | > 100 µM (inactive) | > 100 µM | > 100 µM (inactive) | > 100 µM (inactive) |  | > 100 µM (inactive) | > 100 µM (inactive) |  | > 100 µM (inactive) | > 100 µM (inactive) | > 100 µM (inactive) |  | > 100 µM (inactive) | > 100 µM (inactive) | > 100 µM (inactive) | > 100 µM (inactive) | > 100 µM (inactive) |  |  |
| COc1ccccc1/C=C1\CCC(CNc2ccc(Cl)cc2)C1=O (stereo not drawn) | 2.42 µM (inactive) | 6.35 µM (inactive) | 1.41 µM | 2.2 µM (inactive) | 14 µM (inactive) | 10.6 µM (inactive) | 5.16 µM (inactive) | 4.86 µM (inactive) | 1.34 µM (inactive) | 1.76 µM (inactive) | 7.76 µM (inactive) | 3.16 µM (inactive) | 0.215 µM (active) | 16.4 µM (inactive) | 1.68 µM (inactive) | 1.73 µM (inactive) | 0.59 µM (active) | 16.3 µM (inactive) |  |  |
| C=CCOC(=O)CCCCCCCCCCCCCCCOC(=O)C1=C(CCC[C@@H](C)O[Si](C)(C)C(C)(C)C)NC(=O)N2[C@H](CC3(CC/C=C\[C@H](CC)O[Si](C(C)C)(C(C)C)C(C)C)OCCO3)CC[C@H]12 | > 100 µM (inactive) | > 100 µM (inactive) | > 100 µM |  | > 100 µM (inactive) | > 100 µM (inactive) | > 100 µM (inactive) | > 100 µM (inactive) | > 100 µM (inactive) |  | > 100 µM (inactive) | > 100 µM (inactive) |  | 18.9 µM (inactive) | > 100 µM (inactive) | > 100 µM (inactive) | > 100 µM (inactive) |  | > 100 µM (inactive) | > 100 µM (inactive) |
| ON1CCc2c([nH]c3ccccc23)C1c1ccc(Cl)cc1 (stereo not drawn) |  | 23.8 µM (inactive) |  | 17 µM (inactive) | 20.3 µM (inactive) | 31.3 µM (inactive) | 30 µM (inactive) | 33 µM (inactive) | 29.6 µM (inactive) | 20.3 µM (inactive) | 76.4 µM (inactive) |  | 18.2 µM (inactive) | 16.8 µM (inactive) | 18.2 µM (inactive) | 46.7 µM (inactive) | 31 µM (inactive) | 22.1 µM (inactive) |  |  |
| CCn1c2ccccc2n2c(=O)c3c(c(C#N)c12)CCCC3 | > 100 µM (inactive) | > 100 µM (inactive) | > 100 µM | > 100 µM (inactive) | > 100 µM (inactive) | > 100 µM (inactive) | > 100 µM (inactive) | > 100 µM (inactive) |  |  |  | > 100 µM (inactive) | > 100 µM (inactive) | > 100 µM (inactive) | > 100 µM (inactive) | > 100 µM (inactive) | > 100 µM (inactive) |  | > 100 µM (inactive) | > 100 µM (inactive) |
